Data published in patent US11214594B2, “Antimicrobial peptide having synergistic antibacterial effect with antibiotics on multidrug resistant bacteria, and use thereof” (priority 2016, dated 2022).
Converted amounts (≈) assume the structure as drawn. Where two headings read alike, the source gives them in different places. Where a SMILES comes first, the peptide text is derived from it.

Assays:
MDRPA 2002 = format: cell-based, Pseudomonas aeruginosa
Procedure, shortened: (§1)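 Peptides were serially diluted twofold in Mueller-Hinton medium and combined 1:1 with bacterial suspensions prepared at 2×10^6 CFU. Readout was the minimal inhibitory concentration, i.e. the lowest concentration with no growth.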

MDRPA 2003 = format: cell-based, Pseudomonas aeruginosa
Procedure, shortened: as §1

A. baumannii [1] = test: microbe, parasite or virus in culture; format: cell-based, Acinetobacter baumannii
Procedure, shortened: as §1

MDRAB 12035 [2] = test: microbe, parasite or virus in culture; format: cell-based, Acinetobacter baumannii
Procedure, shortened: as §1

B. subtilis = test: microbe, parasite or virus in culture; format: cell-based, Bacillus subtilis
Procedure, shortened: as §1

A. baumannii [3] = test: MIC of antibiotic during combined treatment with antimicrobial peptide; format: cell-based, Acinetobacter baumannii; conditions: for Antibiotic MIC, Erythromycin / Antibiotic MIC, Linezolid / Antibiotic MIC, Vancomycin: A. baumannii
Procedure, shortened: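 Using MH broth, we determined combination MICs by titrating the antibiotic into wells and then repeating under the reverse dilution scheme.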

MDRAB 12035 [4] = test: as above; format: cell-based, Acinetobacter baumannii
Procedure, shortened: (§2)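 Broth microdilution in MH medium; strains were diluted to 2×10^6 CFU per ml before plating. Peptide was serially diluted stepwise at 2:1 starting from its MIC, and MH-diluted antibiotic was then added to determine MIC. The reversed arrangement was also tested.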

E. coli = format: cell-based, Escherichia coli; conditions: E. coli
Procedure, shortened: as §2

MDREC 1229 = format: cell-based, Escherichia coli
Procedure, shortened: as §2

gram-negative bacteria = test: MIC, summary statements for gram-negative bacteria; format: cell-based; conditions: most of the gram-negative bacteria
Description: For the antibacterial activity, a minimal inhibitory concentration (MIC) of a peptide in which fungus bodies were not split in an MH medium with sufficient nutrients was measured.
Specifically, the strains described in the following [Table 2] were purchased and diluted with an MH medium such that the number of bacteria was 2×10^6 colony-forming units (CFUs), 100 μl of each of the diluted strains was aliquoted into a 96-well microtiter plate, and then 100 μl of a peptide solution diluted with the MH medium (solution diluted stepwise at 2: 1) was added to each well.

[5] = combined with peptide at 1 μg/ml
[6] = combined with peptide at 2 μg/ml
[7] = combined with peptide at 4 μg/ml
[8] = combined with peptide at 6 μg/ml
[9] = combined with peptide at 8 μg/ml
[10] = combined with peptide at 16 μg/ml
[11] = combined with peptide at 32 μg/ml
[12] = combined with peptide at 64 μg/ml
[13] = peptide treatment concentration 1 μg/ml
[14] = peptide treatment concentration 2 μg/ml
[15] = peptide treatment concentration 4 μg/ml
[16] = peptide treatment concentration 6 μg/ml
[17] = peptide treatment concentration 8 μg/ml
[18] = peptide treatment concentration 16 μg/ml
[19] = peptide treatment concentration 32 μg/ml
[20] = peptide treatment concentration 64 μg/ml
[21] = with Erythromycin […] (Conc./MIC 1)

For `CC[C@H](C)[C@H](NC(=O)[C@H](CCCCN)NC(=O)[C@H](Cc1c[nH]c2ccccc12)NC(=O)[C@@H](N)CCCNC(=N)N)C(=O)N[C@@H](Cc1ccccc1)C(=O)N[C@@H](CCCCN)C(=O)N[C@@H](CCCCN)C(=O)N[C@H](C(=O)N1CCC[C@H]1C(=O)N[C@@H](CCCCN)C(=O)N[C@@H](CC(C)C)C(=O)N[C@@H](CC(C)C)C(=O)N[C@@H](Cc1c[nH]cn1)C(=O)N[C@@H](CO)C(=O)N[C@@H](Cc1ccccc1)C(=O)N[C@@H](CCCCN)C(=O)N[C@@H](CCCCN)C(=O)N[C@@H](Cc1ccccc1)C(N)=O)[C@@H](C)CC` [PapMA-7, RWK IFK KIP KLL HSF KKF-NH2] (H-RWKIFKKIPKLLHSFKKF-NH2; N-terminus assumed), the “Minimal inhibitory concentration MIC” value (MDRPA 2002) was 16 µg/mL (≈ 6.83 µM), the “Minimal inhibitory concentration MIC” value (MDRPA 2003) was 16 µg/mL (≈ 6.83 µM) and the “Minimal inhibitory concentration MIC” value (A. baumannii [1]) was 16 µg/mL (≈ 6.83 µM). The “Peptide MIC, peptide alone” value (A. baumannii [1]) was 16 µg/mL, the “Minimal inhibitory concentration MIC” value (MDRAB 12035 [2]) was 32 µg/mL (≈ 13.7 µM) and the “Peptide MIC, peptide alone” value (MDRAB 12035 [2]) was 32 µg/mL. For the same molecule, the “Minimal inhibitory concentration MIC” value (B. subtilis) was >128 µg/mL, the “Synergistic effect of antibacterial activity with existing antibiotics compared with PapMA-1” value (A. baumannii [3]; A. baumannii and MDRAB 12035) was “higher level than the PapMA-1 peptide” and the “Antibiotic MIC, Erythromycin” value (A. baumannii [3]; [5]) was 16 µg/mL. For the same molecule, the “Antibiotic MIC, Linezolid” value (A. baumannii [3]; [5]) was 128 µg/mL, the “Antibiotic MIC, Vancomycin” value (A. baumannii [3]; [5]) was >128 µg/mL and the “Antibiotic MIC, Erythromycin” value (A. baumannii [3]; [6]) was 8 µg/mL. The “Antibiotic MIC, Linezolid” value (A. baumannii [3]; [6]) was 32 µg/mL, the “Antibiotic MIC, Vancomycin” value (A. baumannii [3]; [6]) was 64 µg/mL and the “Antibiotic MIC, Erythromycin” value (A. baumannii [3]; [7]) was 2 µg/mL. For the same molecule, the “Antibiotic MIC, Linezolid” value (A. baumannii [3]; [7]) was 8 µg/mL, the “Antibiotic MIC, Vancomycin” value (A. baumannii [3]; [7]) was 16 µg/mL and the “Antibiotic MIC, Erythromycin” value (A. baumannii [3]; [8]) was 1 µg/mL. The “Antibiotic MIC, Linezolid” value (A. baumannii [3]; [8]) was 2 µg/mL, the “Antibiotic MIC, Vancomycin” value (A. baumannii [3]; [8]) was 4 µg/mL and the “Antibiotic MIC, Erythromycin” value (A. baumannii [3]; [9]) was 0.125 µg/mL. For the same molecule, the “Antibiotic MIC, Linezolid” value (A. baumannii [3]; [9]) was 1 µg/mL, the “Antibiotic MIC, Vancomycin” value (A. baumannii [3]; [9]) was 2 µg/mL and the “Antibiotic MIC, Erythromycin” value (A. baumannii [3]; [10]) was 0 µg/mL. The “Antibiotic MIC, Linezolid” value (A. baumannii [3]; [10]) was 0 µg/mL, the “Antibiotic MIC, Vancomycin” value (A. baumannii [3]; [10]) was 0 µg/mL and the “Antibiotic MIC, Erythromycin” value (A. baumannii [3]; [11]) was 0 µg/mL. The “Antibiotic MIC, Linezolid” value (A. baumannii [3]; [11]) was 0 µg/mL, the “Antibiotic MIC, Vancomycin” value (A. baumannii [3]; [11]) was 0 µg/mL and the “Antibiotic MIC, Erythromycin” value (A. baumannii [3]; [12]) was 0 µg/mL. For the same molecule, the “Antibiotic MIC, Linezolid” value (A. baumannii [3]; [12]) was 0 µg/mL, the “Antibiotic MIC, Vancomycin” value (A. baumannii [3]; [12]) was 0 µg/mL and the “Erythromycin MIC during combined treatment with peptide” value (MDRAB 12035 [4]; [13]) was 8 µg/mL. For the same molecule, the “Linezolid MIC during combined treatment with peptide” value (MDRAB 12035 [4]; [13]) was 64 µg/mL, the “Vancomycin MIC during combined treatment with peptide” value (MDRAB 12035 [4]; [13]) was 128 µg/mL and the “Erythromycin MIC during combined treatment with peptide” value (MDRAB 12035 [4]; [14]) was 4 µg/mL. The “Linezolid MIC during combined treatment with peptide” value (MDRAB 12035 [4]; [14]) was 32 µg/mL, the “Vancomycin MIC during combined treatment with peptide” value (MDRAB 12035 [4]; [14]) was 32 µg/mL and the “Erythromycin MIC during combined treatment with peptide” value (MDRAB 12035 [4]; [15]) was 2 µg/mL. The “Linezolid MIC during combined treatment with peptide” value (MDRAB 12035 [4]; [15]) was 8 µg/mL, the “Vancomycin MIC during combined treatment with peptide” value (MDRAB 12035 [4]; [15]) was 8 µg/mL and the “Erythromycin MIC during combined treatment with peptide” value (MDRAB 12035 [4]; [16]) was 0.5 µg/mL. For the same molecule, the “Linezolid MIC during combined treatment with peptide” value (MDRAB 12035 [4]; [16]) was 4 µg/mL, the “Vancomycin MIC during combined treatment with peptide” value (MDRAB 12035 [4]; [16]) was 4 µg/mL and the “Erythromycin MIC during combined treatment with peptide” value (MDRAB 12035 [4]; [17]) was 0.125 µg/mL. The “Linezolid MIC during combined treatment with peptide” value (MDRAB 12035 [4]; [17]) was 2 µg/mL, the “Vancomycin MIC during combined treatment with peptide” value (MDRAB 12035 [4]; [17]) was 2 µg/mL and the “Erythromycin MIC during combined treatment with peptide” value (MDRAB 12035 [4]; [18]) was 0.0625 µg/mL. The “Linezolid MIC during combined treatment with peptide” value (MDRAB 12035 [4]; [18]) was 1 µg/mL, the “Vancomycin MIC during combined treatment with peptide” value (MDRAB 12035 [4]; [18]) was 1 µg/mL and the “Erythromycin MIC during combined treatment with peptide” value (MDRAB 12035 [4]; [19]) was 0 µg/mL. The “Linezolid MIC during combined treatment with peptide” value (MDRAB 12035 [4]; [19]) was 0 µg/mL, the “Vancomycin MIC during combined treatment with peptide” value (MDRAB 12035 [4]; [19]) was 0 µg/mL and the “Erythromycin MIC during combined treatment with peptide” value (MDRAB 12035 [4]; [20]) was 0 µg/mL. For the same molecule, the “Linezolid MIC during combined treatment with peptide” value (MDRAB 12035 [4]; [20]) was 0 µg/mL, the “Vancomycin MIC during combined treatment with peptide” value (MDRAB 12035 [4]; [20]) was 0 µg/mL and the “Peptide MIC” value (E. coli; [21]) was 0 µg/mL. For the same molecule, the “Peptide MIC” value (E. coli; with Linezolid […] (Conc./MIC 1)) was 0 µg/mL, the “Peptide MIC” value (E. coli; with Vancomycin 1024 μg/ml (Conc./MIC 1)) was 0 µg/mL and the “Peptide MIC” value (MDREC 1229; [21]) was 0 µg/mL. The “Peptide MIC” value (MDREC 1229; with Linezolid 512 μg/ml (Conc./MIC 1)) was 0 µg/mL and the “Antibacterial activity relative to PapMA-1, PapMA-2, PapMA-3 and PapMA-4” value (gram-negative bacteria) was “same or higher”.
